Measured values as given in patent US12398154B2, “Azaquinazoline pan-KRas inhibitors” (Mirati Therapeutics, Inc., priority 2020, dated 2025).

Legend:
Test in all cases: biochemical
KRas G12D = KRas G12D (Homo sapiens, UniProt P01116, G12D);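 further: TR-FRET displacement binding assay on KRas, read after a one-hour incubation at room temperature, IC50 fitted from percent-of-control values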
Protocol: (§1) The ability of a compound to bind to KRas was measured using a TR-FRET displacement assay. […] After a 60-minute incubation at room temperature, the reaction was measured using a BMG LABTECH CLARIO star Plus via TR-FRET. […] The POC values were fit to a 4-parameter IC50 equation and the IC50 value reported.

KRas G12S = KRas G12S (Homo sapiens, UniProt P01116, G12S);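 further: TR-FRET displacement binding to KRas, read after one hour incubation at room temperature, IC50 from four-parameter fit of percent of control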
Sequence of KRas G12S (P01116 1-169 isoform P01116-2 G12S): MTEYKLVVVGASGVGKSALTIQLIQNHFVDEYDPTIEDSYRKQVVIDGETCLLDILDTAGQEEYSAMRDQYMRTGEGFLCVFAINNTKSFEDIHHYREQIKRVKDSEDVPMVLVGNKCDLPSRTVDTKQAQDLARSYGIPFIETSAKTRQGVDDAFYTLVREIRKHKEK
Protocol: as §1

KRas G12C = KRas G12C (Homo sapiens, UniProt P01116, G12C);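 further: binding to KRas assessed by TR-FRET displacement after one hour incubation at room temperature, potency fitted from percent-of-control values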
Sequence of KRas G12C (P01116 1-169 isoform P01116-2 G12C): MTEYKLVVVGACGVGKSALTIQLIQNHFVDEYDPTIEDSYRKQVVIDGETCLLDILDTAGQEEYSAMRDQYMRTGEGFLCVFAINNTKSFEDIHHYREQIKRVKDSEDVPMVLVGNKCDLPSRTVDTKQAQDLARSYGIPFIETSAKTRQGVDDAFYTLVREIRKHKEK
Protocol: as §1

KRas WT = KRas WT (Homo sapiens, UniProt P01116);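 further: binding to KRas read as TR-FRET displacement after a one-hour room-temperature incubation, IC50 derived from percent-of-control values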
Sequence of KRas WT (P01116 1-169 isoform P01116-2): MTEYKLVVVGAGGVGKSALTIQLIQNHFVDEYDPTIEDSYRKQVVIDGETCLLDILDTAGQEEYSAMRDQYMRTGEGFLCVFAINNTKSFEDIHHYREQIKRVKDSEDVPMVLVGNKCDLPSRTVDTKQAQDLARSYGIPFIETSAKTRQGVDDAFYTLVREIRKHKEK
Protocol: as §1

KRas G12V = KRas G12V (Homo sapiens, UniProt P01116, G12V);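 further: KRas binding measured by TR-FRET displacement at room temperature, IC50 fitted from percent of control values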
Sequence of KRas G12V (P01116 1-169 isoform P01116-2 G12V): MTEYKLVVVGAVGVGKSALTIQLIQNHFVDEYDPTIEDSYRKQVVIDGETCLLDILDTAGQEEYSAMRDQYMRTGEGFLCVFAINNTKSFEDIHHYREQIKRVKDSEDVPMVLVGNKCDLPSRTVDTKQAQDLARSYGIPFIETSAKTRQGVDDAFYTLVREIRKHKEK
Protocol: as §1

KRas G12A = KRas G12A (Homo sapiens, UniProt P01116, G12A);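 further: binding to KRas measured by TR-FRET displacement after one hour at room temperature, IC50 from a four-parameter fit of percent-of-control values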
Sequence of KRas G12A (P01116 1-169 isoform P01116-2 G12A): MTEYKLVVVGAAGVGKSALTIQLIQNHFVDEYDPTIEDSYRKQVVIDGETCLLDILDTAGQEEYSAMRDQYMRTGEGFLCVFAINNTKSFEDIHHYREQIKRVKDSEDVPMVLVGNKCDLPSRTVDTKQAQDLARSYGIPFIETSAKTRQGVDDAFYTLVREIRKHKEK
Protocol: as §1

KRas G12R = KRas G12R (Homo sapiens, UniProt P01116, G12R);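 further: TR-FRET displacement assay of compound binding to KRas, read after one hour at room temperature, potency from a four-parameter fit of percent-of-control values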
Sequence of KRas G12R (P01116 1-169 isoform P01116-2 G12R): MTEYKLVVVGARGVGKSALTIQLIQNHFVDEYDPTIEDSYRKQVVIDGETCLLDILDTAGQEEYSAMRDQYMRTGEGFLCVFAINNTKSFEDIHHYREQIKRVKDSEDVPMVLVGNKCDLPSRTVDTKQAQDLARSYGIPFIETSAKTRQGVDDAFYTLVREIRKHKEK
Protocol: as §1

Sequence of KRas G12D (P01116 1-169 isoform P01116-2 G12D): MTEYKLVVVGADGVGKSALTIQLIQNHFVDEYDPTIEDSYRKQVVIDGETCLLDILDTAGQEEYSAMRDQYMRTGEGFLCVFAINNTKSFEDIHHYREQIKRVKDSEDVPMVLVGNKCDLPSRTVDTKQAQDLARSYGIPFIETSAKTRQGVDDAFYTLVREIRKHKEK

| IC50 (KRas G12D) [µM] | IC50 (KRas G12S) [µM] | IC50 (KRas G12C) [µM] | IC50 (KRas WT) [µM] | IC50 (KRas G12V) [µM] | IC50 (KRas G12A) [µM] | IC50 (KRas G12R) [µM] | SMILES |
| --- | --- | --- | --- | --- | --- | --- | --- |
| 0.14 | 0.192 | 0.161 | 0.269 | 0.277 | 0.229 | 0.439 | CCc1cccc2cccc(-c3ncc4c(N5CCOCC(C)(O)C5)nc(OCC56CCCN5CCC6)nc4c3F)c12 (stereo not drawn) [Example 291, 4-(7-(8-ethylnaphthalen-1-yl)-8-fluoro-2-((hexahydro-1H-pyrrolizin-7a-yl)methoxy)pyrido[4,3-d]pyrimidin-4-yl)-6-methyl-1,4-oxazepan-6-ol] |
| 0.021 | 0.026 | 0.088 | 0.068 | 0.061 | 0.097 | 0.18 | CCc1cccc2cccc(-c3ncc4c(N5CC6C(=O)NC(=O)C6C5)nc(OCC56CCCN5CCC6)nc4c3F)c12 (stereo not drawn) [Example 292, 5-(7-(8-ethylnaphthalen-1-yl)-8-fluoro-2-((hexahydro-1H-pyrrolizin-7a-yl)methoxy)pyrido[4,3-d]pyrimidin-4-yl)tetrahydropyrrolo[3,4-c]pyrrole-1,3(2H,3aH)-dione] |
| 0.01 | 0.006 | 0.006 | 0.006 | 0.004 | 0.005 | 0.005 | CCc1cccc2cccc(-c3ncc4c(N5CCCC6(C5)NC(=O)NC6=O)nc(OCC56CCCN5CCC6)nc4c3F)c12 (stereo not drawn) [Example 293, 7-(7-(8-ethylnaphthalen-1-yl)-8-fluoro-2-((hexahydro-1H-pyrrolizin-7a-yl)methoxy)pyrido[4,3-d]pyrimidin-4-yl)-1,3,7-triazaspiro[4.5]decane-2,4-dione] |
| 0.009 | 0.012 | 0.013 | 0.014 | 0.009 | 0.013 | 0.015 | CCc1cccc2cccc(-c3ncc4c(N5CCCC6(CNC(=O)N6)C5)nc(OCC56CCCN5CCC6)nc4c3F)c12 (stereo not drawn) [Example 294, 7-(7-(8-ethylnaphthalen-1-yl)-8-fluoro-2-((hexahydro-1H-pyrrolizin-7a-yl)methoxy)pyrido[4,3-d]pyrimidin-4-yl)-1,3,7-triazaspiro[4.5]decan-2-one] |
| 2.45 | 2.38 | 1.9 | 2.85 | 0.948 | 1.8 | 0.593 | CCc1cccc2cccc(-c3ncc4c(N5CCCC(c6nc[nH]n6)C5)nc(OCC56CCCN5CCC6)nc4c3F)c12 (stereo not drawn) [Example 295, 4-(3-(1H-1,2,4-triazol-3-yl)piperidin-1-yl)-7-(8-ethylnaphthalen-1-yl)-8-fluoro-2-((hexahydro-1H-pyrrolizin-7a-yl)methoxy)pyrido[4,3-d]pyrimidine] |
| 0.388 | 0.172 | 0.212 | 0.202 | 0.254 | 0.156 | 0.203 | CCc1c(F)ccc2cc(O)cc(-c3ncc4c(N5CCC[C@@](C)(O)C5)nc(C(=O)NC(C)CN(C)C)nc4c3F)c12 (stereo partly drawn) [Example 312, N-(1-(dimethylamino)propan-2-yl)-7-(8-ethyl-7-fluoro-3-hydroxynaphthalen-1-yl)-8-fluoro-4-((R)-3-hydroxy-3-methylpiperidin-1-yl)pyrido[4,3-d]pyrimidine-2-carboxamide] |
| 0.124 | 0.113 | 0.096 | 0.106 | 0.13 | 0.128 | 0.125 | C#Cc1c(F)ccc2cc(O)cc(-c3ncc4c(N5CCCC(O)C5)nc(OCCN(C)C)nc4c3F)c12 (stereo not drawn) [Example 387, 1-(2-(2-(dimethylamino)ethoxy)-7-(8-ethynyl-7-fluoro-3-hydroxynaphthalen-1-yl)-8-fluoropyrido[4,3-d]pyrimidin-4-yl)piperidin-3-ol] |
| 6.45 | 7.72 | 7.83 | 8.05 | 4.76 | 6.82 | 8.77 | Cc1ccc2[nH]ncc2c1-c1ncc2c(N3CCCC(C)(O)C3)nc(OCC34CCCN3CCC4)nc2c1F (stereo not drawn) [Example 430, 1-(8-fluoro-2-((hexahydro-1H-pyrrolizin-7a-yl)methoxy)-7-(5-methyl-1H-indazol-4-yl)pyrido[4,3-d]pyrimidin-4-yl)-3-methylpiperidin-3-ol] |
| 9.62 | 19.7 | 17.9 | 19.7 | 15.9 | 19.6 | 34.4 | Cc1cc(-c2ncc3c(N4CCCC(C)(O)C4)nc(OCC45CCCN4CCC5)nc3c2F)c2cn[nH]c2c1 (stereo not drawn) [Example 431, 1-(8-fluoro-7-(6-methyl-1H-indazol-4-yl)-2-((tetrahydro-1H-pyrrolizin-7a(5H)-yl)methoxy)pyrido[4,3-d]pyrimidin-4-yl)-3-methylpiperidin-3-ol] |
| 1.14 | 2.41 | 2.41 | 2.48 | 1.93 | 2.27 | 3.04 | Cc1ccc(O)cc1-c1ncc2c(N3CCCC(C)(O)C3)nc(OCC34CCCN3CCC4)nc2c1F (stereo not drawn) [Example 432, 1-(8-fluoro-2-((hexahydro-1H-pyrrolizin-7a-yl)methoxy)-7-(5-hydroxy-2-methylphenyl)pyrido[4,3-d]pyrimidin-4-yl)-3-methylpiperidin-3-ol] |
| 2.2 | 3.52 | 3.48 | 5.13 | 3.21 | 5.62 | 4.51 | N#CCc1cccc2cccc(-c3ncc4c(N5CCCC6(CC(=O)N6)C5)nc(OCC56CCCN5CCC6)nc4c3F)c12 (stereo not drawn) [Example 434, 2-(8-(8-fluoro-2-((hexahydro-1H-pyrrolizin-7a-yl)methoxy)-4-(2-oxo-1,6-diazaspiro[3.5]nonan-6-yl)pyrido[4,3-d]pyrimidin-7-yl)naphthalen-1-yl)acetonitrile] |
| 3.89 | 5.64 | 4.84 | 4.45 | 5.44 | 4.91 | 6.86 | Cc1cc(N)nc(-c2ncc3c(N4CCC[C@@](C)(O)C4)nc(OC[C@@H]4CCCN4C)nc3c2F)c1C(F)(F)F [Example 435, (R)-1-(7-(6-amino-4-methyl-3-(trifluoromethyl)pyridin-2-yl)-8-fluoro-2-(((S)-1-methylpyrrolidin-2-yl)methoxy)pyrido[4,3-d]pyrimidin-4-yl)-3-methylpiperidin-3-ol] |
| 0.798 | 0.217 | 0.271 | 0.193 | 0.652 | 0.204 | 0.331 | NS(=O)(=O)CC1CCCN(c2nc(OCC34CCCN3CCC4)nc3c(F)c(-c4cccc5ccccc45)ncc23)C1 (stereo not drawn) [Example 436] |
| 1.43 | 0.904 | 1.4 | 0.715 | 2.68 | 1.36 | 2.76 | C#Cc1cccc2cccc(-c3ncc4c(N5CCCC(CS(N)(=O)=O)C5)nc(OCC56CCCN5CCC6)nc4c3F)c12 (stereo not drawn) [Example 437, 1-(1-(7-(8-ethynylnaphthalene-1-yl)-8-fluoro-2-((hexahydro-1H-pyrrolizin-7a-yl)methoxy)pyrido[4,3-d]pyrimidin-4-yl)piperidin-3-yl)methanesulfonamide] |
| 0.238 | 0.106 | 0.13 | 0.095 | 0.239 | 0.109 | 0.099 | Cc1cccc2cccc(-c3ncc4c(N5CCCC(CS(N)(=O)=O)C5)nc(OCC56CCCN5CCC6)nc4c3F)c12 (stereo not drawn) [Example 438, 1-(1-(8-fluoro-2-((hexahydro-1H-pyrrolizin-7a-yl)methoxy)-7-(8-methylnaphthalen-1-yl)pyrido[4,3-d]pyrimidin-4-yl)piperidin-3-yl)methanesulfonamide] |
| 7.97 | 2.26 | 2.53 | 2.03 | 5.79 | 2.15 | 2.83 | NS(=O)(=O)CC1CCCN(c2nc(OCC34CCCN3CCC4)nc3c(F)c(-c4cccc5cccc(CO)c45)ncc23)C1 (stereo not drawn) [Example 439, 1-(1-(8-fluoro-2-((hexahydro-1H-pyrrolizin-7a-yl)methoxy)-7-(8-(hydroxymethyl)naphthalen-1-yl)pyrido[4,3-d]pyrimidin-4-yl)piperidin-3-yl)methanesulfonamide] |
| 0.51 | 0.69 | 0.55 | 0.714 | 0.844 | 0.758 | 1.72 | CC1(O)CCCN(c2nc(OCC34CCCN3CCC4)nc3c(F)c(-c4cccc5cccc(C6CC6)c45)ncc23)C1 (stereo not drawn) [Example 440, 1-(7-(8-cyclopropylnaphthalen-1-yl)-8-fluoro-2-((hexahydro-1H-pyrrolizin-7a-yl)methoxy)pyrido[4,3-d]pyrimidin-4yl)-3-methylpiperidin-3-ol] |
| 53 | 6.31 | 8.2 | 18.8 | 4.21 | 8.47 | 6.38 | O=S1(=O)CC(CNc2nc(OCC34CCCN3CCC4)nc3c(F)c(-c4cccc5cccc(CO)c45)ncc23)C1 [Example 443, 3-(((8-fluoro-2-((hexahydro-1H-pyrrolizin-7a-yl)methoxy)-7-(8-(hydroxymethyl)naphthalen-1-yl)pyrido[4,3-d]pyrimidin-4-yl)amino)methyl)thietane1,1-dioxide] |
